Experimental data reported in ChEMBL document CHEMBL1201862, “PubChem BioAssay data set” (2004).
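Where inhibition never reached the appropriate level, the endpoint shown equals the highest concentration tested. Otherwise, values were interpolated linearly from a five-concentration, 48-hour dose response in 96-well plates. The concentration for 50% growth inhibition is given as GI50.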 Activity calls are given as the source filed them. Rule as the data show it: active = GI50 up to about 1.1 µM and inactive = higher.

Assays:
Assay in all cases: NCI anticancer screen, dose series, 48 h
[1] = tested on: KM-20L2
[2] = tested on: CCRF-CEM
[3] = tested on: HT-29
[4] = tested on: SW-620
[5] = tested on: NCI-H522
[6] = tested on: DLD-1
[7] = tested on: KM12
[8] = tested on: SNB-75
[9] = tested on: SK-MEL-2
[10] = tested on: OVCAR-3
[11] = tested on: IGROV-1
[12] = tested on: NCI-H23
[13] = tested on: NCI-H226
[14] = tested on: M14
[15] = tested on: SR
[16] = tested on: COLO 205
[17] = tested on: NCI-H460
[18] = tested on: SF-539
[19] = tested on: MOLT-4
[20] = tested on: DMS-273
[21] = tested on: 786-0
[22] = tested on: RXF 393
[23] = tested on: SK-OV-3
[24] = tested on: UACC-257
[25] = tested on: RPMI-8226
[26] = tested on: SNB-19
[27] = tested on: TK-10
[28] = tested on: LXFL 529
[29] = tested on: HOP-92
[30] = tested on: HOP-62
[31] = tested on: LOX IMVI
[32] = tested on: A549
[33] = tested on: ACHN
[34] = tested on: HCT-116
[35] = tested on: EKVX
[36] = tested on: XF498
[37] = tested on: SK-MEL-28
[38] = tested on: HL-60
[39] = tested on: HCC 2998
[40] = tested on: U-251
[41] = tested on: OVCAR-5
[42] = tested on: OVCAR-8
[43] = tested on: M19-MEL
[44] = tested on: SK-MEL-5
[45] = tested on: K562
[46] = tested on: HCT-15
[47] = tested on: UO-31
[48] = tested on: UACC-62
[49] = tested on: DMS-114
[50] = tested on: Malme-3M
[51] = tested on: SF-268
[52] = tested on: SN12C
[53] = tested on: A498
[54] = tested on: SF-295
[55] = tested on: SNB-78
[56] = tested on: OVCAR-4
[57] = tested on: CAKI-1

Measured: GI50

CC1(C)OC(=S)N(c2ccccc2)C12C=Cc1cc3ccccc3nc1S2 (centres undefined)
> 100 µM: [46]
inactive: [1] > 100 µM | [2] 29.9 µM | [3] 40.4 µM | [4] > 100 µM | [5] 32.6 µM | [6] 40.6 µM | [7] > 100 µM | [8] 97.1 µM | [9] > 100 µM | [10] > 100 µM | [11] > 100 µM | [12] 29.6 µM | [13] > 100 µM | [14] > 100 µM | [15] 22.4 µM | [16] 84.3 µM | [17] 84.9 µM | [18] > 100 µM | [19] 26.9 µM | [20] 97.3 µM | [21] > 100 µM | [22] 55.6 µM | [23] > 100 µM | [24] > 100 µM | [25] 33.7 µM | [26] > 100 µM | [27] > 100 µM | [28] 44 µM | [29] 40.3 µM | [30] > 100 µM | [31] 59 µM | [32] > 100 µM | [33] > 100 µM | [34] > 100 µM | [35] > 100 µM | [36] > 100 µM | [37] > 100 µM | [38] 40.9 µM | [39] > 100 µM | [40] > 100 µM | [41] > 100 µM | [42] > 100 µM | [43] 93.8 µM | [44] 56.9 µM | [45] 33.4 µM | [47] 73.5 µM | [48] > 100 µM | [49] > 100 µM | [50] > 100 µM | [51] > 100 µM | [52] > 100 µM

Sc1nnc(/C=C/c2ccc(Cl)c(Cl)c2)[nH]1
87.5 µM: [46]
active: [16] 0.0202 µM | [23] 0.0173 µM | [39] < 0.01 µM | [49] 0.0298 µM
inactive: [1] > 100 µM | [2] > 100 µM | [3] > 100 µM | [4] > 100 µM | [5] 94 µM | [6] > 100 µM | [7] > 100 µM | [9] > 100 µM | [10] 77.1 µM | [11] > 100 µM | [12] > 100 µM | [13] > 100 µM | [17] > 100 µM | [18] > 100 µM | [19] 59.4 µM | [20] > 100 µM | [21] > 100 µM | [22] > 100 µM | [24] > 100 µM | [26] > 100 µM | [27] > 100 µM | [30] 41.4 µM | [31] > 100 µM | [32] > 100 µM | [33] > 100 µM | [34] > 100 µM | [35] > 100 µM | [36] 30.9 µM | [37] > 100 µM | [38] > 100 µM | [40] 58.5 µM | [41] > 100 µM | [42] > 100 µM | [44] 44.8 µM | [45] > 100 µM | [53] 53.8 µM | [47] 71.3 µM | [48] > 100 µM | [54] > 100 µM | [50] > 100 µM | [51] > 100 µM | [52] > 100 µM

O=C1CCCc2ccc([N+](=O)[O-])c(O)c21
inactive: [1] > 100 µM | [2] > 100 µM | [55] > 100 µM | [3] > 100 µM | [4] > 100 µM | [5] 66.8 µM | [6] > 100 µM | [7] > 100 µM | [8] 45.6 µM | [9] 39 µM | [10] > 100 µM | [11] 82.6 µM | [12] > 100 µM | [13] 40.8 µM | [14] > 100 µM | [15] 85.7 µM | [16] > 100 µM | [17] > 100 µM | [18] > 100 µM | [19] > 100 µM | [20] > 100 µM | [21] 89.9 µM | [22] 55.1 µM | [23] > 100 µM | [24] > 100 µM | [26] 82.6 µM | [27] 55.7 µM | [28] > 100 µM | [29] 68.1 µM | [30] > 100 µM | [31] > 100 µM | [32] 96.2 µM | [33] 48.9 µM | [34] > 100 µM | [35] > 100 µM | [56] > 100 µM | [37] > 100 µM | [38] 92.5 µM | [39] > 100 µM | [40] 59.3 µM | [41] 59.8 µM | [42] > 100 µM | [43] > 100 µM | [44] > 100 µM | [45] > 100 µM | [53] 50.7 µM | [47] 34.8 µM | [48] 54.6 µM | [49] 66.1 µM | [54] > 100 µM | [50] 34.4 µM | [57] 37.9 µM | [51] 69.8 µM | [52] 65 µM
72.9 µM: [46]
